Values after ≈ are worked out from the molar mass of the structure shown.
Assays:
[1] = tested on: MCF-7 breast cancer cell line; assay: Sulforhodamine B cancer cell growth inhibition, MCF-7; format: cell-based, human; details: 48 hours
Protocol: (§1) Inhibition of human cancer cell growth was assessed using the National Cancer Institute's standard sulforhodamine B assay as previously described. Briefly, cells in a 5% fetal bovine serum/RPMI1640 medium solution were inoculated in 96-well plates and incubated for 24 hours Serial dilutions of the compounds were then added. After 48 hours, the plates were fixed with trichloroacetic acid, stained with sulforhodamine B and read with an automated microplate reader. A growth inhibition of 50% (GI50 of the drug concentration causing a 50% reduction in the net protein increase) was calculated from optical density data with Immunosoft software. Inhibition of the mouse leukemia P388 cells was assessed in a 10% horse serum/Fisher medium solution for 24 hours, followed by a 48 hour incubation with serial dilutions of the compounds. Cell growth inhibition (ED50) was then calculated using a Z1 Beckman/Coulter particle counter. (Monks, A., et al., Feasibility of high-flux anticancer screen using a diverse panel of cultured human tumor cell lines, J Natl. Cancer Inst. 1991, 83, 757-766.)

[2] = tested on: P388 lymphocytic leukemia cells; assay: Inhibition of mouse leukemia P388 cell growth; format: cell-based; details: P388 murine leukemia, in Table 2
Protocol: as §1

[3] = tested on: Neisseria gonorrhoeae ATCC 49226; assay: Broth microdilution antibacterial susceptibility; format: cell-based
Protocol: (§2) Ircinastatin A (1) was evaluated against the bacteria Stenotrophomonas maltophilia ATCC 13637, Micrococcus luteus Presque Isle 456, Staphylococcus aureus ATCC 29213, Escherichia coli ATCC 25922, Enterobacter cloacae ATCC 13047, Enterococcus faecalis ATCC 29212, Streptococcus pneumoniae ATCC 6303 and Neisseria gonorrhoeae ATCC 49226, and the fungi Candida albicans ATCC 90028 and Cryptococcus neoformans ATCC 90112, following established broth microdilution susceptibility assays. The minimum inhibitory concentration was defined as the lowest concentration of irciniastatin A that inhibited all visible growth of the test organism (optically clear). Assays were repeated on separate days. (National Committee for Clinical Laboratory Standards. Methods for Dilution Antimicrobial Susceptibility Tests for Bacteria that Grow Aerobically. Approved Standard M7-A5. Wayne, Pa.: NCCLS, 2000; National Committee for Clinical Laboratory Standards. Reference Method for Broth Dilution Antifungal Susceptibility Testing of Yeasts. Approved Standard M27-A. Wayne, Pa.: NCCLS, 1997.)

[4] = tested on: Cryptococcus neoformans ATCC 90112; assay: Broth microdilution antifungal susceptibility; format: cell-based
Protocol: as §2

[5] = tested on: KM20L2 colon cancer cell line; assay: Sulforhodamine B cancer cell growth inhibition, KM20L2; format: cell-based, human; details: 48 hours
Protocol: as §1

[6] = tested on: BXPC-3 pancreas cancer cell line; assay: Sulforhodamine B cancer cell growth inhibition, BXPC-3; format: cell-based, human; details: 48 hours
Protocol: as §1

[7] = tested on: NCI-H460 lung cancer cell line; assay: Sulforhodamine B cancer cell growth inhibition, NCI-H460; format: cell-based, human; details: for GI50: NCI-H460 lung, 48 hours
Protocol: as §1

[8] = tested on: DU-145 prostate cancer cell line; assay: Sulforhodamine B cancer cell growth inhibition, DU-145; format: cell-based, human; details: 48 hours
Protocol: as §1

[9] = tested on: HUVEC (human umbilical vascular endothelial cells); assay: Growth inhibition of normal endothelial cells (HUVEC); format: cell-based
[10] = tested on: SF268 CNS cancer cell line; assay: Sulforhodamine B cancer cell growth inhibition, SF268; format: cell-based, human; details: 48 hours
Protocol: as §1

[11] = tested on: murine P388 leukemia cell line and six human cancer cell lines; assay: Cancer cell growth inhibition, P388 plus minipanel of human cancer cell lines (summary); format: cell-based; details: against P388, BXPC-3, MCF-7 and SF268
Protocol: as §1

Compound	GI50 [1] [ng/mL]	GI50 [2] [ng/mL]	minimum inhibitory concentration [3] [µg/mL]	minimum inhibitory concentration [4] [µg/mL]	GI50 [5] [ng/mL]	GI50 [6] [ng/mL]	activity of irciniastatin A relative to irciniastatin B ([7]; NCI-H460 lung cancer cells)	GI50 [7] [ng/mL]	GI50 [8] [ng/mL]	GI50 [9] [ng/mL]	GI50 [10] [ng/mL]	cell growth inhibition of irciniastatin B (2) relative to irciniastatin A (1) [11]
C=C(C)CC(OC)[C@H](O)C(=O)N[C@@H](OC)[C@@H]1C[C@@H](O)C(C)(C)[C@@H](C[C@H](O)[C@@H](C)[C@H]2Cc3c(C)c(O)cc(O)c3C(=O)O2)O1 (stereo partly shown) [Irciniastatin A, irciniastatin A]	3.2 (≈ 5.25 nM)	4.13 (≈ 6.77 nM)	64 (≈ 105000 nM)	16 (≈ 26200 nM)	2.7 (≈ 4.43 nM)	3.8 (≈ 6.23 nM)	at least 10 times	<0.1	2.4 (≈ 3.94 nM)	<0.5	3.4 (≈ 5.58 nM)	–
C=C(C)C[C@H](OC)[C@H](O)C(=O)N[C@@H](OC)[C@@H]1CC(=O)C(C)(C)[C@@H](C[C@H](O)[C@@H](C)[C@H]2Cc3c(C)c(O)cc(O)c3C(=O)O2)O1 [Irciniastatin B, irciniastatin B]	0.5 (≈ 0.823 nM)	6 (≈ 9.87 nM)	–	–	2.1 (≈ 3.46 nM)	0.73 (≈ 1.2 nM)	–	1.2 (≈ 1.97 nM)	1.6 (≈ 2.63 nM)	–	0.66 (≈ 1.09 nM)	ten times stronger
